Experimental data as given in the supplement of paper PMC10307832.

Columns and labels:
Assay in all cases: relative viability (nuclei count vs DMSO), 5 days (fraction); higher = more cells survive
[1] = compound: CC(C)(C)c1nc(-c2cccc(NS(=O)(=O)c3c(F)cccc3F)c2F)c(-c2ccnc(N)n2)s1 [Dabrafenib] + Nc1nc2[nH]cc(CCc3ccc(C(=O)N[C@@H](CCC(=O)O)C(=O)O)cc3)c2c(=O)[nH]1 [Pemetrexed] (partner 0.2 µM)
Method in brief: (§1)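 Medians of duplicate plates are given as relative viability. That measure is the nuclei count in treated wells divided by the count in vehicle wells. Counts were taken on 4× images of lung cancer cell lines in 1536-well plates, 5 days after pin-tool dosing the day after seeding with one drug alone or a fixed anchor-drug dose plus five library-drug doses (not always all listed) in √10 steps.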

[2] = compound: NC(=O)c1ccc(N(C(N)=O)c2c(F)cccc2F)nc1-c1ccc(F)cc1F [VX-702] + CS(=O)(=O)CCNCc1ccc(-c2ccc3ncnc(Nc4ccc(OCc5cccc(F)c5)c(Cl)c4)c3c2)o1 [Lapatinib] (partner 2 µM)
Method in brief: as §1

[3] = compound: CC(C)(C)c1nc(-c2cccc(NS(=O)(=O)c3c(F)cccc3F)c2F)c(-c2ccnc(N)n2)s1 [Dabrafenib] + C[C@]1(O)C[C@@H](c2nc(-c3ccc4ccc(-c5ccccc5)nc4c3)c3c(N)nccn32)C1 [Linsitinib] (partner 1 µM)
Method in brief: as §1

[4] = compound: CC(C)(C)c1nc(-c2cccc(NS(=O)(=O)c3c(F)cccc3F)c2F)c(-c2ccnc(N)n2)s1 [Dabrafenib] + Cc1nc(Nc2ncc(C(=O)Nc3c(C)cccc3Cl)s2)cc(N2CCN(CCO)CC2)n1 [Dasatinib] (partner 0.075 µM)
Method in brief: as §1

Cell Line	relative viability ([1]; first compound 0.003 µM)	relative viability ([1]; first compound 0.009487 µM)	relative viability ([1]; first compound 0.03 µM)	relative viability ([1]; first compound 0.09487 µM)	relative viability ([1]; first compound 0.3 µM)	relative viability ([2]; first compound 0.02 µM)	relative viability ([2]; first compound 0.2 µM)	relative viability ([2]; first compound 0.6325 µM)	relative viability ([2]; first compound 2 µM)	relative viability ([3]; first compound 0.003 µM)	relative viability ([3]; first compound 0.009487 µM)	relative viability ([3]; first compound 0.03 µM)	relative viability ([3]; first compound 0.09487 µM)	relative viability ([3]; first compound 0.3 µM)	relative viability ([4]; first compound 0.003 µM)	relative viability ([4]; first compound 0.009487 µM)	relative viability ([4]; first compound 0.03 µM)	relative viability ([4]; first compound 0.09487 µM)	relative viability ([4]; first compound 0.3 µM)
201T	0.332	0.352	0.332	0.307	0.287	1.06	0.991	1.12	1.09	0.918	1.07	0.941	1.03	1.05	0.606	0.541	0.57	0.497	0.54
A549						1.05	0.922	0.943	1.03		0.549	0.374	0.697	0.568					
A-427	0.891	1.04	0.828	0.803	0.987	1.17	0.968	1.07	1.16		1.13	1	0.949	1.1		0.77	0.594	0.51	0.627
ABC-1						0.972	0.98		1.18		0.81	0.841	0.892	0.861	0.64	0.531		0.58	0.799
BEN		0.764		0.846	0.908	0.726	0.662	0.539	0.926		0.986		0.883	0.938		0.334		0.356	0.327
CAL-12T	1.21	1.44	1.18	1.08	1.14	0.61	0.603	0.611	0.664	0.744	0.901	0.786	0.777	0.963	0.493	0.434	0.476	0.325	0.42
COR-L23	0.18	0.213	0.193	0.209	0.196	0.999	0.862	0.914	1.26	0.997	0.974	0.843	0.886	0.883	0.448	0.441	0.555	0.455	0.425
COR-L 105	1	1.2	0.799	1.19	1.29	0.332	0.336	0.338	0.326	0.959	0.943	0.908	0.88	1.07	0.316	0.39	0.366	0.373	0.368
Calu-6						1.07	1.1	1.13	1.25	0.939	0.951	0.72	0.737	0.675					
ChaGo-K-1	0.219	0.256	0.263	0.246	0.26										0.477	0.487	0.56	0.586	0.559
EBC-1						0.228	0.175	0.188	0.188	0.854	0.867	0.679	0.378	0.309					
EKVX		0.484	0.419	0.408	0.395	0.215	0.22	0.226	0.127	0.997	1.17	0.933	0.866	1.13		0.585	0.522	0.533	0.628
EMC-BAC-2		0.401	0.392	0.32	0.377	0.924	0.947	0.906	0.883	0.773	0.825	0.616	0.838	0.851	0.327	0.319	0.317	0.246	0.295
EPLC-272H	0.273	0.271	0.304	0.262	0.488	1.09	0.751	1.1	1.59		1.36	1.02	0.939	0.918	0.281	0.443	0.399	0.344	0.33
H3255	0.564	0.593	0.607	0.511	0.643	0.24	0.254	0.26	0.241	0.944	1.06	1.01	0.832	1.03	0.285	0.425	0.341	0.421	0.377
HARA		0.221	0.252	0.238	0.247	0.653	0.69	0.91	0.825	0.973	0.869	0.841	0.905	1.3	0.242	0.346		0.294	0.264
HCC-15	0.221	0.225	0.227	0.212	0.215	0.837	0.838	0.857	0.928	0.851	0.996	0.917	0.821	0.951	0.597	0.665	0.775	0.651	0.754
HCC-44	0.61	0.58	0.697	0.598	0.651	1.03	1.03	0.982	1.05	0.624	0.706	0.822	0.605	0.701					
HCC-78		0.935	0.91	0.879	0.795	0.871	0.456	0.603	0.98		0.694	0.442	0.45	0.628		0.492	0.483	0.251	0.408
HCC-366	0.216	0.0959	0.172	0.124	0.193	1.03	1.15	1.23	0.791		0.787	0.0905	0.549	0.892	0.197	0.692	0.68	0.627	0.584
HCC-827	0.224	0.288	0.243		0.281	0.181	0.191	0.19	0.152	0.905	0.964	0.96	0.998	0.974	0.44	0.384	0.287		0.382
HOP-62	0.253	0.255	0.286	0.273	0.25	1.04	0.894	1.08	0.975		1.07	0.804	0.831	0.977	0.509	0.738	0.588	0.603	0.539

Cell Line	relative viability ([1]; first compound 0.003 µM)	relative viability ([1]; first compound 0.009487 µM)	relative viability ([1]; first compound 0.03 µM)	relative viability ([1]; first compound 0.09487 µM)	relative viability ([1]; first compound 0.3 µM)	relative viability ([2]; first compound 0.02 µM)	relative viability ([2]; first compound 0.2 µM)	relative viability ([2]; first compound 0.6325 µM)	relative viability ([2]; first compound 2 µM)	relative viability ([3]; first compound 0.003 µM)	relative viability ([3]; first compound 0.009487 µM)	relative viability ([3]; first compound 0.03 µM)	relative viability ([3]; first compound 0.09487 µM)	relative viability ([3]; first compound 0.3 µM)	relative viability ([4]; first compound 0.003 µM)	relative viability ([4]; first compound 0.009487 µM)	relative viability ([4]; first compound 0.03 µM)	relative viability ([4]; first compound 0.09487 µM)	relative viability ([4]; first compound 0.3 µM)
IA-LM						0.789	0.738	0.77	0.761	0.443	0.575	0.547	0.283	0.424					
LC-2-ad	0.271	0.283	0.25	0.269	0.286	0.892	0.972	1.01	1.03	0.93	0.768	0.802	0.764	0.851		0.802	0.518	0.512	0.677
LCLC-97TM1		0.198	0.198	0.124	0.139	0.908	0.786	1.3	0.947		0.18	0.187		0.192	0.574	0.847	0.843	0.36	0.534
LCLC-103H	0.473	0.455	0.532	0.42	0.4					1.04	1.08	0.84	1.13	1.09	0.495	0.526	0.513	0.447	0.379
LK-2	0.249	0.239		0.253	0.301	0.986	0.727	0.891	0.895	0.587	0.875	0.225	0.381	0.53	0.208	0.274		0.285	0.276
LOU-NH91		0.34	0.403	0.409	0.409	0.789	0.645	0.639	0.675		1.15	0.93	0.91	0.944	0.41	0.573	0.582	0.49	0.568
LU99A	0.25	0.192	0.181	0.161	0.183	0.948	1.02	0.987	0.982	0.542	0.532	0.484	0.476	0.476	0.662	0.569	0.423	0.464	0.41
LXF-289	0.751	0.872	0.965	0.813	1.08	0.965	0.876	0.912	0.922	0.992	0.976	1.04	0.954	1.08	0.175	0.2	0.211	0.195	0.192
NCI-H23		0.67	0.504	0.7	0.597	1.12	1.01	1.04	1.25		0.67	0.553	0.645	0.547		0.814	0.873	0.625	0.666
NCI-H322M		0.711		0.602	0.572	0.58	0.616	0.583	0.674		1.02		0.874	0.895		0.229	0.233	0.279	0.236
NCI-H358	0.169	0.166	0.152	0.209	0.163	0.485	0.442	0.484	0.546		1.03	0.705	0.813	0.776	0.185	0.197	0.233	0.487	0.392
NCI-H441		0.232	0.255	0.259	0.263						0.48	0.54	0.32	0.383		0.623	0.689	0.55	0.456
NCI-H522		1.08	0.833	1.07	0.989											0.862	0.671	0.83	0.899
NCI-H727						0.88	0.671	0.818	0.911		0.312	0.29	0.367	0.465		0.479	0.434		0.568
NCI-H1299						1.02	0.965	1.03	1.06	0.941	0.959	0.798	0.743	0.625					
NCI-H1623																0.521	0.585	0.611	0.619
NCI-H1648	0.746	0.781		0.654	0.738														
NCI-H1650	0.364	0.391	0.389	0.389	0.419	0.808	0.469	0.818	0.907						0.263	0.376	0.425	0.327	0.378
NCI-H1703						1.2	0.931	0.647	1.21	0.335	1.12	0.75	0.834	1.18					
NCI-H2170	0.274	0.265	0.26	0.252	0.282	0.278	0.284	0.273	0.299						0.597	0.483	0.53	0.618	0.544
NCI-H2342	0.751	0.779	0.747	0.765	0.858										0.288	0.309	0.344	0.323	0.334
